In patent US12251398B2, “Topical compositions designated to maintain and/or restore the integrity of the mucosa and damaged epidermis” (RICERFARMA S.R.L., priority 2020, dated 2025):

Key:
[1] = system: hyaluronidases; settings: known, in words; cited from earlier work
[2] = system: Hyaluronidase from bovine testes I-S Type; experiment: Enzymatic degradation of hyaluronic acid by hyaluronidase, Mw followed by HP-SEC-TDA; assay type: biochemical; settings: in words
Excerpt: The molecular weight distribution of degraded acids will be analyzed by using High Performance Size Exclusion Chromatography coupled with a Triple Detector Array (HP-SEC-TDA).
The following is the list of reagents and materials used: • Hyaluronic acid (Mw 1.348.000 Da), Contipro a.s. (Czech Republic) • Hyaluronic acid (Mw 1.450.000 Da), Lehvoss Italia S.r.l. (Italy) • Glycerophosphocholine • Ascorbyl Palmitate • Citric acid monohydrate, Sigma Aldrich • Deionized H2O obtained with a Culligan apparatus; • Hyaluronidase from bovine testes I-S Type. 400-1000 units/mg. Sigma Aldrich; • NaNO3. Sigma Aldrich; • NaN3. Sigma Aldrich; • Snap-it vial 0.3 ml, 11.6×32 mm. Thermo Scientific; • Snap-it cap 11 mm, Thermo Scientific; • Sodium citrate diidrate, Sigma Aldrich. Samples Prepared and Tested:
10 ml of solution were hydrolyzed.
Buffer Solution: Solution 1 has been added to Solution 2 and stirred at room temperature for 30′. Resulting pH=6.06.
Hyaluronidase: about 10 mg of hyaluronidase were dissolved in about 1 ml of H2O and stirred at room temperature for 3 hours (10 mg/ml).
The solutions were stirred at 38° C. in an oil bath for about 1 h before adding 67 μl of the enzyme solution (HA/Hyaluronidase 15/1 w/w).
Different aliquots of solutions were collected at different timing (1 h; 2 h; 3 h; 4 h; 5 h; 6 h, 24 h) and heated at 100° C. for 5′ using a thermoshaker to denature the enzyme. The solutions were filtrated to remove the precipitated enzyme (LLG-Syringe filter CA pore size 0.20 μm. Ø 13 mm). Before HP-SEC-TDA analyses, the solutions were diluted to 0.5 mg/ml of HA with mobile phase.
Two equivalent HP-SEC-TDA instruments were used: • 1) Viscotek system model TDA305. equipped with Refractive Index, Right and Low Angle Light Scattering and Viscometers detectors, was used under the following conditions: • Columns: 2 columns TSKGMPWXL 13 μm. […]

[3] = as disclosed in WO93/19730; cited from earlier work

CCCCCCCCCCCCCCCC(=O)OC[C@H](O)[C@H]1OC(=O)C(O)=C1O [Ascorbyl Palmitate, Ascorbyl palmitate]
inhibitory activity against hyaluronidases [1]: significant inhibitory activity
effect on the enzymatic kinetics of HA degradation [2]: significantly effective in slowing down the enzymatic kinetics
effect on the enzymatic kinetics of HA degradation ([2]; listed as ascorbyl palmitate): significantly effective in slowing enzymatic kinetics

C[N+](C)(C)CCOP(=O)([O-])OC[C@H](O)CO [Glycerophosphocholine]
systemic toxicity [3]: practically devoid of systemic toxicity
topical tolerability [3]: marked topical tolerability
effect on the enzymatic kinetics of HA degradation [2]: does not contribute in any way to the enzymatic kinetics
